Test results as given in PMC7650794, “Pharmacological Modulation of Blood–Brain Barrier Permeability by Kinin Analogs in Normal and Pathologic Conditions” (Pharmaceuticals, 2020).
“Also recorded” adds a separate entry of the source. Non-standard residues stand in square brackets, D forms with d. Residues, ends and D or L forms follow the SMILES beside them. No end group written: not given here. Hyp = O=C(O)[C@@H]1C[C@@H](O)CN1; 2Thi = N[C@@H](Cc1cccs1)C(=O)O; Gly(N-cHex) = O=C(O)CNC1CCCCC1

Legend:
[1] = molecular target: T1, human B2R (Homo sapiens, UniProt P30411); test: IP-One accumulation assay, human B2R-HEK293 cells; type: cell-based; conditions: for EC50: IP1 accumulation, 30 min, room temperature, pH 7.4, 50 mM LiCl, human B2R-HEK293, 15,000 cells per well, mean of two independent experiments performed in duplicates, read-out: IP1 Assays (EC50; nM)
T1 construct: expressed in transfected cells; host or cells: QBI HEK 293A cells, lentiviral transduction with pCDH-BDKRB2, puromycin selection
T1 sequence (P30411 1-391): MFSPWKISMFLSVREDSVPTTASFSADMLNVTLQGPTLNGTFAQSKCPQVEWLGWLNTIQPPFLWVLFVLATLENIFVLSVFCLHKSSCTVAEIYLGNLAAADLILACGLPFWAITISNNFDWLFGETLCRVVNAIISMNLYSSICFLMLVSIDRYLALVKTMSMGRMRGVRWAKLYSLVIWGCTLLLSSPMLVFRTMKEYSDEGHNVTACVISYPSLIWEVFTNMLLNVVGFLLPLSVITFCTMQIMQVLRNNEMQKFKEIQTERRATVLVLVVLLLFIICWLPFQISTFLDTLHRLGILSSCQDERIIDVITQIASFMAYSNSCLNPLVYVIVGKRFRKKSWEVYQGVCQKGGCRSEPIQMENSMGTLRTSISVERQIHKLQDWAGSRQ
Protocol: The IP-One assay was performed on living, adherent human B2R-HEK293 cells according to the manufacturer’s recommendations (Cisbio, #62IPAPEB, Bedford, MA, USA). […] IP1-d2 and anti-IP1-Cryptate were added for at least 1 h. Fluorescence signal was measured using a Tecan M1000 plate reader (excitation at 320 nm and emission at 620 and 665 nm). EC50 values were calculated by curve-fitting using GraphPad Prism 8.2.

[2] = molecular target: T1, human B2R; test: Radioligand displacement binding assay, [3H]BK, human B2R-HEK293 cells; conditions: for IC50: displacement of 1 nM [3H]BK, living adherent HEK293 cells stably expressing human B2R, serum-free DMEM, 1.5 h, 4 °C, mean of two independent experiments performed in duplicates; for binding affinity at human B2R, in words: HEK293 cells stably expressing human B2R
Protocol: The pCDH-BDKRB2 vector was produced from the plasmid pcDNA3.1/human BDKRB2 by PCR amplification using the primers 5′-[…]-3′ and 5′-[…]-3′, and introduced into pCDH-CMV-MCS-EF1 vector using BamHI et XbaI restriction sites. Lentiviruses were produced from pCDH-BDKRB2 vector in HEK293T cells using the X-tremeGENE HP transfection reagent (Millipore-Sigma, Oakville, ON, Canada). Lentiviruses were harvested 48 h post-transfection and used to infect QBI HEK 293A cells (ATCC). Transduced cells were selected using 5 µg/mL of puromycin (Thermo Fisher, Burlington, On, Canada).
Radioligand displacement binding assays were performed as we previously described, with slight modifications. HEK293 cells stably expressing human B2R were used for these assays (see text above). […] Radioactivity of samples was measured by a β-scintillation counter (PerkinElmer, Woodbridge, On, Canada). Binding affinities of peptides were expressed in terms of IC50 values—the molar concentration of an unlabeled agonist causing 50% displacement of specific binding (GraphPad Prism 8.2).

[3] = tested on: GBM cells; conditions: vs. temozolomide (TMZ); ref [33]; cited from earlier work
[4] = tested on: BBB / brain cancer; set-up: method as in PMID 22709590; conditions: ref [33]; cited from earlier work
[5] = tested on: BBB, irradiated mouse brain; test: DCE-MRI of BBB permeability to Gd-DTPA in irradiated mouse brain; type: in vivo; conditions: T1-weighted, 10 months after 45 Gy; Gd-DTPA alone or with NG291 50 µg/kg i.v.
Excerpt: Female Balb/c mice were anesthetized using 1.5 L/min oxygen containing isoflurane (3% for induction, 2% for maintenance) and positioned on a custom-designed stereotactic bed compatible with the Leksell Gamma Knife Perfexion (Elekta AB, Stockholm, Sweden). A maximum dose of 45 Gy (23.1 Gy at the 50% isodose) was delivered through 4 mm collimators in the right hemisphere of the brain. Mouse and human brains have different sensitivities to radiation. This dose was selected because it allows the development and slow progression of radiation necrosis (approximatively appearing at 17 months post-irradiation in T2-weighted MRI; Figure 4), similar to what may be observed in brain cancer patients who received radiotherapy. After irradiation, mice were placed on a heating pad to recover, and were then returned to their cages.
For dynamic contrast-enhanced (DCE)-MRI imaging, pre-contrast T1-weighted imaging with an array of flip angles (α = 10°, 20°, 25°, 35°, 50°) was performed to acquire a T1 map with the following parameters: TR = 100 ms, TE = 2.79 ms, data matrix = 128 × 128, FOV = 20 × 20 mm^2; 1 average; 10 slices; 1 mm slice thickness. Then, a dynamic acquisition with the same parameters and a fixed angle at 30° was acquired before, during, and after injection of contrast agent. […]

[6] = tested on: 4T1-luc mammary cancer cells, brain metastases in mice; test: 4T1-luc breast cancer brain metastasis model; type: in vivo, mouse; conditions: NG291 50 μg/kg over 5 min i.v., single dose, 18 days, 6–8 animals
Protocol: Mice were anesthetized using 1.5 L/min oxygen-containing isoflurane (3% for induction, 2% for maintenance) and secured with tape in a supine position on a heating pad. A total of 1 × 10^5 4T1-Luc cells suspended in 100 µL of sterile saline was slowly injected into the left ventricle of the heart using a 1 mL Hamilton syringe mounted with a 30G needle as described previously. For BBB disruption experiments, a cannula was placed in the caudal vein and a single dose of NG291 (50 µg/kg/5 min) was infused into the caudal vein while simultaneously injecting the cancer cells intracardially. Successful intracardiac injection and tumor development was evaluated weekly by bioluminescence imaging. The development of brain metastatic tumor burden was determined by histological analysis.
Brain sections from mice inoculated with 4T1-Luc cells were stained with hematoxylin-eosin (H and E) for histological examination and metastases quantification using the NanoZoomer Digital Pathology software (Hamamatsu, NDP.view version 2.7.25). H and E staining was performed on brain sections every 20–30 µm. The relative total area and number of metastatic foci in the entire brain section were calculated from manual delineation of metastases in digital images of H and E-stained brain slides using the NanoZoomer NDP.view2 viewing software free hand tool. […] A total of 68 slices were analyzed.

[7] = tested on: angiotensin-converting enzyme (ACE, alias kininase II); conditions: ref [26]; cited from earlier work
[8] = tested on: normal mice; test: Tolerability / blood pressure effect in anesthetized normal mice; type: in vivo, mouse
[9] = tested on: leucocytes, brain; conditions: exogenous BK; ref [21],[24]; cited from earlier work
[10] = tested on: BBB / BTB; set-up: method as in 2 sources, one per row (each row's own in cited_ref): ref [2],[13] = [2]; PMID 15153840; doi:10.1177/107327480401100304; 2. Black K.L. Ningaraj N.S. Modulation of brain tumor capillaries for enhanced drug delivery selectively to brain tumor Cancer Control. 2004 11 165 173 10.1177/107327480401100304 15153840 || [13]; PMID 11286321; doi:10.2165/00003088-200140020-00003; 13. Emerich D.F. Dean R.L. Osborn C. Bartus R.T. The development of the bradykinin agonist labradimil as a means to increase the permeability of the blood-brain barrier: From concept to clinical evalu ||| ref [2],[46],[47] = [2]; PMID 15153840; doi:10.1177/107327480401100304; 2. Black K.L. Ningaraj N.S. Modulation of brain tumor capillaries for enhanced drug delivery selectively to brain tumor Cancer Control. 2004 11 165 173 10.1177/107327480401100304 15153840 || [46]; PMID 20146088; doi:10.1007/s11060-010-0124-x; 46. Liu L.B. Xue Y.X. Liu Y.H. Bradykinin increases the permeability of the blood-tumor barrier by the caveolae-mediated transcellular pathway J. Neurooncol. 2010 99 187 194 10.1007/s11060-010-0124-x || [47]; PMID 12023511; doi:10.1124/jpet.301.3.838; 47. Ningaraj N.S. Rao M. Hashizume K. Asotra K. Black K.L. Regulation of blood-brain tumor barrier permeability by calcium-activated potassium channels J. Pharmacol. Exp. Ther. 2002 301 838 851 10.112; conditions: increased numbers of pinocytotic vesicles or caveolae; ref [2],[46],[47]; cited from earlier work
Excerpt: Kinin effects are mediated through specific activation of two types of receptors, namely, the kinin B1 (B1R) and B2 receptors (B2R), both belonging to the G-protein-coupled receptor family. […] The strategy exploiting targeted stimulation of the kinin receptors could perhaps ...

N=C(N)NCCC[C@@H](N)C(=O)N[C@@H](CCCNC(=N)N)C(=O)N1CCC[C@H]1C(=O)N1C[C@H](O)C[C@H]1C(=O)NCC(=O)N[C@H](C(=O)N[C@@H](CO)C(=O)N1[C@H](C(=O)N[C@H](C(=O)N[C@@H](CCCNC(=N)N)C(=O)O)C2Cc3ccccc3C2)C[C@@H]2CCCC[C@@H]21)C1Cc2ccccc2C1 [B9972, DArg[Hyp^3, Igl^5, Oic^7, Igl^8]-BK]
EC50 [1]: 158 nM | IC50 [2]: 199 nM

COc1cccc2c1C(=O)c1c(O)c3c(c(O)c1C2=O)C[C@@](O)(C(=O)CO)C[C@@H]3O[C@H]1C[C@H](N)[C@H](O)[C@H](C)O1 [DOX, doxorubicin]
potency for killing GBM cells in vitro [3]: more potent than temozolomide (TMZ) for killing GBM cells in vitro | BBB crossing and in vivo efficacy in brain cancer [4]: does not readily cross the BBB and so shows poor efficacy in in vivo models

CNC[C@H](O)[C@@H](O)[C@H](O)[C@H](O)CO.CNC[C@H](O)[C@@H](O)[C@H](O)[C@H](O)CO.O=C([O-])CN(CCN(CC(=O)[O-])CC(=O)O)CCN(CC(=O)[O-])CC(=O)O.[Gd+3] [Gd-DTPA]
contrast enhancement in the irradiated hemisphere [5]: Minimal contrast enhancement was observed in the irradiated hemisphere

N=C(N)NCCC[C@H](NC(=O)[C@H](Cc1cccs1)NC(=O)CN(C(=O)[C@H](CO)NC(=O)[C@H](Cc1cccs1)NC(=O)CNC(=O)[C@@H]1C[C@@H](O)CN1C(=O)[C@@H]1CCCN1C(=O)[C@@H](N)CCCNC(=N)N)C1CCCCC1)C(=O)O [NG291, [Hyp^3, Thi^5, ^NChg^7, Thi^8]-BK] (H-RP[Hyp]G[2Thi]S[Gly(N-cHex)][2Thi]R-OH)
EC50 [1]: 0.9 nM | effect on brain tumor burden and number of metastases, in words [6]: did not significantly increase brain tumor burden; also recorded: no difference in terms of both area and number of metastases | protection against enzymatic degradation by ACE [7]: fully protected against enzymatic degradation by the angiotensin-converting enzyme | hypotensive effect ([8]; high dose i.v. NG291, ketamine/xylazine-anesthetized normal mice, strong but reversible, not shown): about -35 mmHg | tolerability ([8]; high dose i.v. NG291, normal mice): generally well-tolerated | IC50 [2]: 3 nM

N=C(N)NCCC[C@@H](N)C(=O)N[C@H](Cc1ccccc1)C(=O)N1CCC[C@@H]1C(=O)N[C@H](CO)C(=O)N[C@H](Cc1ccccc1)C(=O)NCC(=O)N1CCC[C@@H]1C(=O)N1CCC[C@@H]1C(=O)N[C@H](CCCNC(=N)N)C(=O)O [RI-BK, D(retroinverso)-BK] (H-[dR][dF][dP][dS][dF]G[dP][dP][dR]-OH; N-terminus and C-terminus assumed)
agonist activity/potency at human B2R, in words ([1]; IP1, HEK293 cells stably expressing human B2R): no binding affinity and agonist activity at human B2R | EC50 [1]: > 10000 nM | binding affinity at human B2R, in words [2]: no binding affinity | IC50 [2]: > 10000 nM

RPPGFSPFR [BK, H-Arg^1-Pro^2-Pro^3-Gly^4-Phe^5-Ser^6-Pro^7-Phe^8-Arg^9-OH]
binding affinity at human B2R, in words [2]: higher binding affinity (IC50) | brain trafficking of IV-infused leucocytes [9]: can increase brain trafficking of IV-infused leucocytes | BTB permeability by the transcellular pathway [10]: may increase BTB permeability, as well by means of the transcellular pathway
